Assay results reported in patent US5068349A, “Mitomycin derivatives” (Kyowa Hakko Kogyo Co., Ltd., priority 1988, dated 1991).
≈ marks a conversion by molar mass, not a printed value.

What was measured:
[1] = Determination of LD50 (single administration, 14 days observation); conditions: mouse, in vivo, ddY mice, Behrens Kaerber's method
Experimental: (§1) LD50 and ED50 were determined by the following methods, respectively.
(1) Determination of LD50
Five ddY mice were used for each group, and the test compounds were administered once to the mice intraperitoneally or intravenously. […] LD50 was calculated from the death rate of each group according to the Behrens Kaerber's method.

[2] = test system: Staphylococcus aureus ATCC 6538P; experiment: minimum growth inhibitory concentration, agar dilution method (SA); assay type: cell-based; conditions: ATCC6538P, pH 7.0
Experimental: (§2) The antibacterial activity of Compounds (I) against various bacteria [minimum growth inhibitory concentration (μ g/ml)] is shown in Table 3.
(§3) The minimum growth inhibitory concentration was determined by the agar dilution method at pH 7.0. In the table, names of bacteria are shown by the following symbols.
SA : Staphylococcus aureus ATCC 6538P

[3] = test system: Streptococcus faecium ATCC 10541; experiment: minimum growth inhibitory concentration, agar dilution method (SF); assay type: cell-based; conditions: Enterococcus faecium, ATCC10541, pH 7.0
Experimental: as §2, §3
SF : Streptococcus faecium ATCC 10541

Sarcoma 180 solid tumor = experiment: Determination of ED50 against Sarcoma 180 solid tumor; assay type: in vivo; conditions: Mus musculus, dose at T/C 0.5 (tumor volume, 7 days after implantation), male ddY mice, 24 hours after implantation
Experimental: as §1
(2) Determination of ED50
Sarcoma 180 cells (5×10^6 cells) were implanted intraperitoneally into a ddY mouse and the cells were collected from the ascitic fluid of the animal 7 days after the implantation. The cells were washed once with sterilized physiological saline solution and then suspended in sterilized physiological saline solution to prepare a cell suspension containing 5×10^7 cells/ml. The suspension (0.1 ml) was subcutaneously implanted into the right axilla of male ddY mice weighing 20±2 g.
A test compound was dissolved in physiological saline solution or Tween 80-containing physiological saline solution, and 0.1 to 0.2 ml of the solution was administered to 5 mice as one group intraperitoneally or intravenously 24 hours after the implantation of the tumor cells.
The anti-tumor activity of the test compound was determined by measuring the major axis (a) and the minor axis (b) of the tumor 7 days after the implantation, calculating a value of (a)×(b)^2 /2 corresponding to the volume of the tumor, and calculating a ratio T/C of the volume (T) of the group which received the test compound to the volume (C) of the control group which received no test compound T/C at each dose given was plotted on a graph in which T/C is shown by an ordinary scale on the vertical axis and a dose is shown by a logarithmic scale on the abscissa. The relationship between the dose and T/C was determined to be a straight line by the least-squares method.

[4] = test system: Klebsiella pneumoniae ATCC 10031; experiment: minimum growth inhibitory concentration, agar dilution method (KP); assay type: cell-based; conditions: ATCC10031, pH 7.0
Experimental: as §2, §3
KP : Klebsiella pneumoniae ATCC 10031

[5] = test system: Proteus vulgaris ATCC 6897; experiment: minimum growth inhibitory concentration, agar dilution method (PV); assay type: cell-based; conditions: ATCC6897, pH 7.0
Experimental: as §2, §3
PV : Proteus vulgaris ATCC 6897

[6] = Sarcoma-180, ip, 168 h, intraperitoneal
[7] = Sarcoma-180, 168 h, intravenous

Row | SMILES | LD50 at 336 h ([1]; ip, intraperitoneal) [mg/kg] | MIC [2] [µg/mL] | MIC [3] [µg/mL] | ED50 (Sarcoma 180 solid tumor; [6]) [mg/kg] | MIC [4] [µg/mL] | MIC [5] [µg/mL] | LD50 at 336 h ([1]; intravenous) [mg/kg] | ED50 (Sarcoma 180 solid tumor; [7]) [mg/kg]
1 | CCSCC1=C(N)C(=O)C2=C(C1=O)N1CC3NC3C1(OC)C2COC(N)=O (stereo not drawn) [Compound 11, 6-Demethyl-6-ethylthiomethylmitomycin C] | 30 | 0.039 (≈ 0.0989 µM) | 0.31 (≈ 0.786 µM) | 11.6 | 1.3 (≈ 3.3 µM) | 0.16 (≈ 0.406 µM) |  | 
2 | COC12C(COC(N)=O)C3=C(C(=O)C(CSCc4ccccc4)=C(N)C3=O)N1CC1NC12 (stereo not drawn) [Compound 18, 6-Demethyl-6-benzylthiomethylmitomycin C] |  | 0.16 (≈ 0.35 µM) | 0.039 (≈ 0.0854 µM) |  | 5 (≈ 11 µM) | 40 (≈ 87.6 µM) | 56.6 | 20.2
3 | COC(=O)CCSCC1=C(N)C(=O)C2=C(C1=O)N1CC3NC3C1(OC)C2COC(N)=O (stereo not drawn) [Compound 12, 6-Demethyl-6-(2-methoxycarbonylethylthio)methylmitomycin C] |  | 0.31 (≈ 0.685 µM) | 0.63 (≈ 1.39 µM) |  | 0.31 (≈ 0.685 µM) | 1.3 (≈ 2.87 µM) |  | 
4 | COC12C(COC(N)=O)C3=C(C(=O)C(CSc4ccccc4)=C(N)C3=O)N1CC1NC12 (stereo not drawn) [Compound 17, 6-Demethyl-6-phenylthiomethylmitomycin C] |  | 20 (≈ 45.2 µM) | 0.31 (≈ 0.701 µM) |  | 10 (≈ 22.6 µM) | 40 (≈ 90.4 µM) | 50 | 6.1
5 | CCCCOCC1=C(N)C(=O)C2=C(C1=O)N1CC3NC3C1(OC)C2COC(N)=O (stereo not drawn) [Compound 6, 6-Demethyl-6-n-butoxymethylmitomycin C] | > 50 | 0.63 (≈ 1.55 µM) | 0.31 (≈ 0.763 µM) | 38 | 5 (≈ 12.3 µM) |  |  | 
6 | CCCCCCCCCCCCSCC1=C(N)C(=O)C2=C(C1=O)N1CC3NC3C1(OC)C2COC(N)=O (stereo not drawn) [Compound 14, 6-Demethyl-6-dodecylthiomethylmitomycin C] |  | 0.2 (≈ 0.374 µM) | 0.39 (≈ 0.729 µM) |  |  | > 50 |  | 
7 | COC12C(COC(N)=O)C3=C(C(=O)C(COC(C)C)=C(N)C3=O)N1CC1NC12 (stereo not drawn) [Compound 8, 6-Demethyl-6-isopropoxymethylmitomycin C] |  | 0.63 (≈ 1.61 µM) | 0.31 (≈ 0.79 µM) |  | 0.63 (≈ 1.61 µM) | 40 (≈ 102 µM) | > 50 | 14.9
8 | COCC1=C(N)C(=O)C2=C(C1=O)N1CC3C(N3C)C1(OC)C2COC(N)=O (stereo not drawn) [Compound 1, 6-Demethyl-6-methoxymethylporfiromycin] |  | 0.31 (≈ 0.819 µM) | 0.63 (≈ 1.66 µM) |  | 0.63 (≈ 1.66 µM) | > 40 |  | 
9 | COC12C(COC(N)=O)C3=C(C(=O)C(CSC(C)C)=C(N)C3=O)N1CC1NC12 (stereo not drawn) [Compound 16, 6-Demethyl-6-isopropylthiomethylmitomycin C] |  | 0.16 (≈ 0.392 µM) | 0.078 (≈ 0.191 µM) |  | 1.3 (≈ 3.18 µM) | 10 (≈ 24.5 µM) | 37.5 | 8.4
10 | COCC1=C(N)C(=O)C2=C(C1=O)N1CC3NC3C1(OC)C2COC(N)=O (stereo not drawn) [Compound 2, 6-Demethyl-6-methoxymethylmitomycin C] | 75 | 1.3 (≈ 3.57 µM) | 1.3 (≈ 3.57 µM) | 34 | 0.31 (≈ 0.851 µM) | 1.3 (≈ 3.57 µM) |  | 
11 | COCC1=C(OC)C(=O)C2=C(C1=O)N1CC3NC3C1(OC)C2COC(N)=O (stereo not drawn) [Compound 4, 6-Demethyl-6-methoxymethylmitomycin A] |  | 10 (≈ 26.4 µM) | 10 (≈ 26.4 µM) |  | 0.63 (≈ 1.66 µM) | 2.5 (≈ 6.59 µM) |  | 
12 | COC12C(COC(N)=O)C3=C(C(=O)C(COCc4ccccc4)=C(N)C3=O)N1CC1NC12 (stereo not drawn) [Compound 7, 6-Demethyl-6-benzyloxymethylmitomycin C] | 60 | 0.63 (≈ 1.43 µM) | 0.16 (≈ 0.363 µM) | 25.2 | 5 (≈ 11.4 µM) |  |  | 
13 | COC12C(COC(N)=O)C3=C(C(=O)C(CO)=C(N)C3=O)N1CC1NC12 (stereo not drawn) [Compound 10, 6-Demethyl-6-hydroxymethylmitomycin C] |  | 5 (≈ 14.3 µM) | 10 (≈ 28.5 µM) |  | 1.3 (≈ 3.71 µM) | 5 (≈ 14.3 µM) |  | 
14 | COC12C(COC(N)=O)C3=C(C(=O)C(CSCCO)=C(N)C3=O)N1CC1NC12 (stereo not drawn) [Compound 13, 6-Demethyl-6-(2-hydroxyethylthio)methylmitomycin C] |  | 10 (≈ 24.4 µM) | 10 (≈ 24.4 µM) |  | 5 (≈ 12.2 µM) | 40 (≈ 97.5 µM) |  | 
15 | COC12C(COC(N)=O)C3=C(C(=O)C4=C(NCCSC4)C3=O)N1CC1NC12 (stereo not drawn) [Compound 20] |  | 2.5 (≈ 6.37 µM) | 5 (≈ 12.7 µM) |  | 10 (≈ 25.5 µM) | 40 (≈ 102 µM) | 22.5 | 12.6
